Assay results from patent US20040228831A1, “Polymeric conjugates for tissue activated drug delivery” (priority 2003, published 2004).

Legend:
[1] = Maximum tolerated dose of Pt construct and oxaliplatin; format: in vivo, C57B1/6 mice; conditions: mice
From the text: Plasmin labile construct, 26, bearing an aspartic acid-platinum-diamino-cyclohexane (DACH) chelate was studied using C57B1/6 mice bearing s.c. B16-F10 murine melanoma (FIG. 1C). […] Thus, a substantially larger dose of Pt was safely delivered by the polymeric prodrug construct.

murine melanoma B16-F10 = experiment: Anti-tumor efficacy in mice bearing s.c. murine melanoma B16-F10, daily i.v. x5; format: in vivo; conditions: 2 mg/kg (free drug's MTD), daily i.v. for 5 days
Protocol: (§1) Polymeric prodrug conjugate, conjugate, 6, a doxorubicin (Dox)-containing construct in which the drug moiety is attached to the PEG backbone via a cathepsin B-cleavable linker peptide was tested in mice bearing murine melanoma B16-F10 implanted s.c. Mice were treated by daily i.v. (tail vein) injection for 5 consecutive days, beginning on the day when tumors became palpable. The conjugate was studied at the maximum tolerated dose (MTD) of the free drug, 2 mg Dox/kg (equimolar comparison), and at the conjugate's MTD, 6 mg Dox/kg (equitoxic comparison). The conjugate, 6, or Dox administered at the free drug's MTD (2 mg/kg) had minimal anti-tumor effect (30% tumor reduction, 3.4 days delay in reaching 500 mg). But at the conjugate's MTD of 6 mg Dox/kg there was substantial activity (FIG. 1A). The conjugate reduced tumor by 81% and extended the time to reach 500 mg to 6.5 days. Therefore as a polymeric prodrug conjugate it was possible to increase the tolerated drug dose by a factor of 3, and this increase permitted the achievement of substantially greater anti-tumor efficacy.

[2] = Maximum tolerated dose of Dox and conjugate in mice, daily i.v. x5; format: in vivo; conditions: daily i.v. injection for 5 consecutive days
Protocol: as §1

| SMILES | maximum tolerated dose (MTD) [1] [mg Pt/kg] | delay in reaching 500 mg (murine melanoma B16-F10) [days] | tumor reduction (murine melanoma B16-F10) [%] | maximum tolerated dose (MTD) [2] [mg Dox/kg] |
| --- | --- | --- | --- | --- |
| O=C1[O][Pt]2([NH][C@@H]3CCCC[C@H]3[NH]2)[O]C1=O [oxaliplatin] | 10 | – | – | – |
| COc1cccc2c1C(=O)c1c(O)c3c(c(O)c1C2=O)C[C@@](O)(C(=O)CO)C[C@@H]3O[C@H]1C[C@H](N)[C@H](O)[C@H](C)O1 [Dox, doxorubicin] | – | 3.4 | 30 | 2 |
